# Assay results taken from patent US20050163755A1, “Methods and compositions related to 1-caldesmon” (priority 2003, published 2005).
# Assays:
# Type in all cases: cell-based, avian
# DF-1 cells [1] = experiment: Transcellular resistance of confluent monolayers on microelectrode (adenovirus system); settings: 3 μM cytochalasin D vs virus at MOI of 200
# Description: Quantitative transcellular impedance measurements were acquired in real-time using a previously reported technique of inoculating cultured cells grown on the surface of microelectrodes coated with 100 μg/ml of fibronectin (Moy et al., 2002, Moy et al., 1998, Moy et al., 1996, Moy et al., 2000). A 1-volt, 4000 Hz AC signal was supplied through a 1-M Ω resistor to approximate a constant-current source. Voltage and phase data were measured with a SRS830 lock-in amplifier (Stanford Instruments) and then later stored and processed with a personal computer. The in-phase voltage, proportional to the resistance, and the out-of-phase voltage, proportional to the capacitive reactance, were measured. For most situations, resistance is reported because it is most sensitive to cytoskeletal-membrane properties. […] A uniform number of viable cells (˜650,000 cells per sample), which was determined by the amount of cells that excluded trypan blue, were inoculated on the electrode to control for the effect of cell viability. Transcellular resistance was measured as a fractional change and normalized to the cell resistance of wild-type DF-1 cells. Transcellular resistance was measured at 15 hours for inter-subject comparisons—a time point at which transcellular resistance was at steady state. […]
# DF-1 cells [2] = experiment: Numerical modeling of transcellular impedance (α, Rb, Cm); settings: 3 μM cytochalasin D, wild-type DF-1 cells
# Description: A numerical analysis was used to calculate specific cell-cell and cell-substrate adhesion and membrane capacitance based on the measured transcellular impedance. The procedure is described in more detail elsewhere for endothelial cells (Moy et al., 2002, Moy et al., 2000), fibroblasts (Giaever and Keese, 1991), and for epithelial cells (Lo et al., 1995). The total impedance across a cell-covered electrode is composed of the impedance created between the ventral surface of the cell and the electrode (related to α and due to cell-matrix adhesion), the impedance created between cells (indicated by Rb and due to cell-cell adhesion), the transcellular impedance created from transcellular current conduction (Zm) and the impedance of a naked electrode (Zn). For these calculations, Zm is inversely related to membrane capacitance (Cm), which is dependent upon membrane convolution, which, in turn, is dependent on the cortical cytoskeleton. The data was expressed as a ratio of the real or imaginary measurement of cell-covered electrode to a naked electrode as a function of current frequency between 25 to 60,000 Hz. A calculated real and imaginary value was generated from the solutions of α, Rb and Cm obtained from a multi-response Levenberg-Maquardt non-linear optimization model of the real, imaginary, real and imaginary (in complex form) and real and imaginary (in magnitude form) data. An error evaluation was calculated using a Chi square analysis of the squared sum of the calculated and the experimental residuals as a function of current frequency. […]
# Using a previously reported mathematical model, it was next evaluated whether the difference in 1-CaD-mediated change in transcellular resistance was due to effects on cell-cell, cell-matrix adhesion, membrane capacitance or a combination of all three. […] A calculated resistance and capacitance was generated from iterative solutions of α, Rb and Cm obtained from a multi-response Levenberg-Maquardt non-linear optimization model of the real and/or imaginary data. […]
# DF-1 cells [3] = experiment: Cell viability assay, trypan blue; settings: 48 hrs, 200 MOI virus or 3 μM cytochalasin D
# Description: Cultured cells were transfected with Ad-CaD or the controlled virus using a calcium phosphate co-precipitation technique. Cells were washed free of virus and incubated for additional 48 hours in serum containing medium. Transfected cells were exposed to trypan blue dye and the fraction of viable cells was quantitated. Viability of cells transfected with Ad-CaD and controlled virus was compared to the cell viability measured in monolayers exposed to cytochalasin for the same corresponding period.
# DF-1 cells [4] = experiment: In vitro wound closure assay to measure cell motility; settings: mechanical wounding
# Description: DF-1 cell motility was measured by wounding the cell monolayer and measuring wound closure by monitoring the traversed distance over time. DF-1 cells were plated at 70% confluence on glass cover slips coated with 100 μg/ml of fibronectin. These cells were then transfected with Ad-CaD or Ad-empty and allowed to grow to 100% confluence (2 days post-transfection). A wound was made in the monolayer using a sterile pipette tip with an outer diameter of 300 μm. The same area was captured sequentially at time intervals of 0, 1, 3, and 6 hours under phase contrast microscopy. The migrated distance was assessed at 3 locations that were separated by equal distance. Cell motility was determined as the average velocity for the 3 measurements for each time point. […]
# It was next evaluated whether human wild-type 1-CaD expression disturbs cytopathic effects such as wound closure. Cell motility in response to mechanical wounding was measured to address this question. […] Cultured monolayers were subjected to mechanical wounding with a glass pipette and time-lapse images of cell motility were recorded over a period of several hours. Each image was equally divided into 3 regions, and the leading edge of cell migration was measured for each time point. Cell motility for each time point was determined as the average velocity measured for each of 3 regions. […]
# DF-1 cells [5] = experiment: Prestress force: constitutive isometric tension on collagen membranes; settings: 3 μM cytochalasin D
# Description: Prestress was determined by the measured loss of constitutive isometric tension in response to cytochalasin D. Isometric tension was measured in cultured DF-1 cells inoculated on the surface of polymerized type 1 collagen membranes as described by Bodmer (1997). Isometric tension was simultaneously monitored in 2 separate isometric vectors to account for the presence of anisotropic tension. Constitutive tension was measured in cell-collagen lattices under unloaded conditions. To determine the optimal length-tension relationship during the unloaded state, the collagen gel was stretched with a micromanipulator that was attached to the transducer until a 10 mg increase in force was observed. The gel was progressively unloaded until no further decline in preload was observed. The length (Carson et al., 1989) of the gel was chosen as the no-load state. […] The constitutive tension was defined as the measured loss in tension upon the addition of cytochalasin D.
# Since expression of wild-type human 1-CaD stabilizes membrane capacitance, it was next asked whether this enhancement was attributed to a reduction in myosin ATPase activity. […] Constitutive tension was measured under isometric no-load conditions in order to be consistent with the mechanical state at which transcellular resistance was measured. […]
smiles,measurement,setting,value
C=C1[C@@H](C)[C@H]2[C@H](Cc3ccccc3)NC(=O)[C@]23[C@H](OC(C)=O)/C=C/[C@@](C)(O)C(=O)[C@@H](C)C/C=C/[C@H]3[C@@H]1O [Cytochalasin D],Transcellular resistance,DF-1 cells [1],greater loss in transcellular resistance than cells transfected with Ad-CaD or controlled virus
same,Cm (membrane capacitance),DF-1 cells [2],statistically significant increase in Cm
same,Rb (cell-cell adhesion),DF-1 cells [2],decrease in α and Rb
same,α (cell-matrix adhesion),DF-1 cells [2],decrease in α and Rb
same,Cell viability / cell death,DF-1 cells [3],decreased cell viability in a statistically significant manner
same,Wound repair,DF-1 cells [4],completely inhibited wound repair
same,Constitutive tension,DF-1 cells [5],abolished constitutive tension
